The results in this text go back to patent US20260297542A1, “HERBICIDE RESISTANT PLANTS” (SYNGENTA CROP PROTECTION AG, priority 2023, published 2026).

Holding throughout (experiment): E. coli hemG growth inhibition by herbicide, AtPPO1 variant
Holding throughout (type): cell-based
Common to all, as to conditions: read-out: percentage growth inhibition

For one experiment, the target named is T1, AtPPO1 K281C (Arabidopsis thaliana, UniProt P55826, K281C).
T1 construct: expressed in transfected cells; host or cells: E. coli BL21(DE3) hemG (hemG replaced by CmR), pET24a plasmid
T1 sequence (P55826 35-537 K281C): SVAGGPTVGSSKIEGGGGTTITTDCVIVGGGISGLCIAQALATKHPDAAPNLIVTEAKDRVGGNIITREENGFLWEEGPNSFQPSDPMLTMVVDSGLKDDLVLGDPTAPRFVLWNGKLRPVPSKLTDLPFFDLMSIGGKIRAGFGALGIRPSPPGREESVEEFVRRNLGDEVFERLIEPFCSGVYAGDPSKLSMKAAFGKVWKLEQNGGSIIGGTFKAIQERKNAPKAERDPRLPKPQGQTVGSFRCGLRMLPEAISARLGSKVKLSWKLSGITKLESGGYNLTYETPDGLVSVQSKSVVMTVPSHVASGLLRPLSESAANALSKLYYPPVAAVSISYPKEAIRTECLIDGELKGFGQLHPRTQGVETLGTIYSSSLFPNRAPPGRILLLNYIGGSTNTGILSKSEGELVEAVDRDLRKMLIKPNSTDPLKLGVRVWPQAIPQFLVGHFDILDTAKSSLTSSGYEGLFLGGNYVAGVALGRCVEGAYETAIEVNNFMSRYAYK
A digest of the protocol:
(§1)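 Read-out is OD600 at 24 h post inoculation, converted to percent growth inhibition relative to DMSO. The hemG-deleted BL21(DE3) host relied on the plasmid-borne AtPPO1 variant, induced with 0.1 mM IPTG, with 6.25 ppm herbicide 0 or E or 0.78 ppm herbicide B present at 37° C.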

The target in the next experiment is T2, AtPPO1 L479M (Arabidopsis thaliana, UniProt P55826, L479M).
T2 construct: expressed in transfected cells; host or cells: E. coli BL21(DE3) hemG, pET24a plasmid
T2 sequence (P55826 35-537 L479M): T1 sequence (P55826 35-537 K281C) with C247K, L445M
A digest of the protocol:
as §1

The next experiment has as its target T3, AtPPO1 V198W (Arabidopsis thaliana, UniProt P55826, V198W).
T3 construct: expressed in transfected cells; host or cells: E. coli BL21(DE3) hemG (hemG replaced by CmR), pET24a plasmid
T3 sequence (P55826 35-537 V198W): T1 sequence (P55826 35-537 K281C) with V164W, C247K
A digest of the protocol:
as §1

The next experiment deals with T4, AtPPO1 Y361F (Arabidopsis thaliana, UniProt P55826, Y361F).
T4 construct: expressed in transfected cells; host or cells: E. coli BL21(DE3) hemG (pET24a, T7 promoter)
T4 sequence (P55826 35-537 Y361F): T1 sequence (P55826 35-537 K281C) with C247K, Y327F
Put shortly:
as §1

Substitutions are numbered along the chain they refer to.

In general, inhibition refers to how much of the control response was suppressed. As for `C#CCN1C(=O)C(F)(F)Oc2cc(F)c(-n3c(=O)n(C)c(=S)n(C)c3=O)cc21` [Herbicide B, trifludimoxazin], the inhibition at 0.78 ppm was 35% on AtPPO1 K281C, 29% on AtPPO1 L479M, 30% on AtPPO1 V198W and 31% at AtPPO1 Y361F.

Take `CCOC(=O)[C@]1(C)CC(c2cc(-n3c(=O)n(C)c(=S)n(C)c3=O)c(F)cc2Cl)=NO1` [Herbicide D, ethyl (5S)-3-[2-chloro-5-(3,5-dimethyl-2,6-dioxo-4-thioxo-1,3,5-triazinan-1-yl)-4-fluoro-phenyl]-5-methyl-4H-isoxazole-5-carboxylate]: the inhibition at 6.25 ppm at AtPPO1 K281C stood at 33%; at AtPPO1 L479M, 4%; at AtPPO1 V198W it was 47%; at AtPPO1 Y361F, 37%.

Take `CC(C)N(C)S(=O)(=O)NC(=O)c1cc(-n2c(=O)cc(C(F)(F)F)n(C)c2=O)c(F)cc1Cl` [Herbicide E, saflufenacil]: the inhibition at 6.25 ppm at AtPPO1 K281C came to 54%; at AtPPO1 L479M it was 28%; at AtPPO1 V198W, 51%; at AtPPO1 Y361F it was 50%.
